From ChEMBL document CHEMBL1129052, “2-[(2-Aminobenzyl)sulfinyl]-1-(2-pyridyl)-1,4,5,6-tetrahydrocyclopent[d]imidazoles as a novel class of gastric H+/K+-ATPase inhibitors” (J Med Chem, 1996)

Key:
[1] = target: Potassium-transporting ATPase (Rattus norvegicus) (UniProt P09626+P18598); assay: Gastric antisecretory activity was tested in rats at 30 mg/kg, po expressed as the percentage of inhibition against the acid output of the control group; type: functional, organism-based; set-up: dose 30 mg/kg
[2] = target: Potassium-transporting ATPase (Sus scrofa, UniProt P18434+P19156); assay: Inhibition of H+/K+ ATPase from porcine gastric mucosal membrane vesicles; type: tissue-based, Gastric mucosa
Chain of Potassium-transporting ATPase (Sus scrofa, UniProt P18434+P19156) (P18434 whole entry): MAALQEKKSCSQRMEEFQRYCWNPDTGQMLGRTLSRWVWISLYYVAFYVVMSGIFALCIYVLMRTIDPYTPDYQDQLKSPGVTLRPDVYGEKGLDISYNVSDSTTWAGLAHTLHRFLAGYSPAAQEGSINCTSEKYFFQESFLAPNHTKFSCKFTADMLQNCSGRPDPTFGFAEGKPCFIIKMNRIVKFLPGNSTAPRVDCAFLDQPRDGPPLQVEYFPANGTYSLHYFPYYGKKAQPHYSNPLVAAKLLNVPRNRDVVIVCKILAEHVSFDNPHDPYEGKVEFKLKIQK
Chain of Potassium-transporting ATPase (Sus scrofa, UniProt P18434+P19156) (P19156 whole entry): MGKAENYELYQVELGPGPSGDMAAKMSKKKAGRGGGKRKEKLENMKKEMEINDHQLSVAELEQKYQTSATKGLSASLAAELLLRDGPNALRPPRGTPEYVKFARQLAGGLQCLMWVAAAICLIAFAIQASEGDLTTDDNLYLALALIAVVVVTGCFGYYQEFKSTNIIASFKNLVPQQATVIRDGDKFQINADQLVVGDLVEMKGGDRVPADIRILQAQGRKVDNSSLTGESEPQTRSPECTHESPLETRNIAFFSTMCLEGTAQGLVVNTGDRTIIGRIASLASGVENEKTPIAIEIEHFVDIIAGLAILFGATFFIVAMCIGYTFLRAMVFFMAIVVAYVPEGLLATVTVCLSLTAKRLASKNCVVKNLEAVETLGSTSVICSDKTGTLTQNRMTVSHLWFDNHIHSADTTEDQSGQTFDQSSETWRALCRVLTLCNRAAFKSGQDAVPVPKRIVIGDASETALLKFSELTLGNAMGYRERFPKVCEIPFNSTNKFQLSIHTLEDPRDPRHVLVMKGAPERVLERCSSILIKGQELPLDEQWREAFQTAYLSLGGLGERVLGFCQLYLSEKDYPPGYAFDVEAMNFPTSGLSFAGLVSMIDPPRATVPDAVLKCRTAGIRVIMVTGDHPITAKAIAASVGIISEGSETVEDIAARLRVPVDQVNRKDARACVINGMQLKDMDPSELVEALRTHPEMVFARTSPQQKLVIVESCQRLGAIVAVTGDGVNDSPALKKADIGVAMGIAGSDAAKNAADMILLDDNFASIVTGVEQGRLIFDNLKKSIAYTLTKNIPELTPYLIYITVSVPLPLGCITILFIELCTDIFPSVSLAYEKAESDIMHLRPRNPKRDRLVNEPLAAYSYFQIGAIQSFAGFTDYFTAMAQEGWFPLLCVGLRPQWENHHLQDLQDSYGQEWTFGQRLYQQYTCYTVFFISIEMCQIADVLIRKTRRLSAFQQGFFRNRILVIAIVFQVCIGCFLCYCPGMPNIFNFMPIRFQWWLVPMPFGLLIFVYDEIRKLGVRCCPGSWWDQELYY

[3] = target: Potassium-transporting ATPase (Sus scrofa, UniProt P19156); assay: In vitro inhibition against H+/K+ ATPase from porcine gastric mucosal membrane vesicles; type: tissue-based, Gastric mucosa
Chain of Potassium-transporting ATPase (Sus scrofa, UniProt P19156) (P18434 whole entry): as the sequence (P18434 whole entry) above
Chain of Potassium-transporting ATPase (Sus scrofa, UniProt P19156) (P19156 whole entry): as the sequence (P19156 whole entry) above

Row | SMILES | inhibition [1] | IC50 [2] | IC50 [3]
1 | COc1cccnc1-n1ccnc1[S+]([O-])Cc1ccccc1-n1cccc1 (configuration not stated) | 39% | Not Active | 
2 | CN(C)c1ccccc1C[S+]([O-])c1nc2c(n1-c1ccccc1)CCC2 (configuration not stated) | 20% |  | 68 µM
3 | CCN(CC)c1ccccc1C[S+]([O-])c1nccn1-c1ncccc1C (configuration not stated) | 100% |  | 100 µM
4 | CNc1ccccc1C[S+]([O-])c1nccn1-c1ncccc1C (configuration not stated) |  |  | 7.5 µM
5 | CNc1ccccc1C[S+]([O-])c1nccn1-c1ccccn1 (configuration not stated) | 54% |  | 7 µM
6 | CN(C)c1ccccc1C[S+]([O-])c1nc(-c2ccccc2)c(-c2ccccc2)[nH]1 (configuration not stated) | 0% | Not Active | 
7 | CCN(CC)c1ccccc1C[S+]([O-])c1nc2c(n1-c1ccccn1)CCC2 (configuration not stated) | 98% |  | 11 µM
8 | COc1cccnc1-n1ccnc1[S+]([O-])Cc1ccccc1N (configuration not stated) | 79% |  | 100 µM
9 | [O-][S+](Cc1ccccc1-n1cccc1)c1nc2c(n1-c1ccccn1)CCC2 (configuration not stated) | 21% | Not Active | 
10 | CCNc1ccccc1C[S+]([O-])c1nccn1-c1ncccc1C (configuration not stated) | 100% |  | 18 µM
11 | CN(C)c1ccccc1C[S+]([O-])c1nc2c(n1-c1ccccn1)CCC2 (configuration not stated) | 97% |  | 32 µM
12 | [O-][S+](Cc1ccccc1N1CCOCC1)c1nccn1-c1ccccn1 (configuration not stated) | 90% | Not Active | 
13 | CN(C)c1ccccc1C[S+]([O-])c1nc(-c2ccccc2)cn1Cc1ccccc1 (configuration not stated) | 0% | Not Active | 
14 | Cc1cccnc1-n1c([S+]([O-])Cc2ccccc2N(C)C)nc2c1CCC2 (configuration not stated) | 87% |  | > 100 µM
15 | CN(C)c1ccccc1C[S+]([O-])c1nc2c(n1Cc1ccccn1)CCC2 (configuration not stated) | 12% |  | 55 µM
16 | CN(C)c1ccccc1C[S+]([O-])c1ncc[nH]1 (configuration not stated) | 80% |  | 32 µM
17 | [O-][S+](Cc1ccccc1N1CCCCC1)c1nccn1-c1ccccn1 (configuration not stated) | 100% | Not Active | 
18 | CCN(CC)c1ccccc1C[S+]([O-])c1nc2c(n1-c1cccnc1)CCC2 (configuration not stated) | 0% | Not Active | 
19 | CNc1ccccc1C[S+]([O-])c1nc2c(n1-c1ncccc1C)CCC2 (configuration not stated) | 90% |  | 81 µM
20 | CN(C)c1ccccc1C[S+]([O-])c1nc2c(n1-c1ccccn1)CCCC2 (configuration not stated) | 12% |  | 59 µM
21 | CNc1ccccc1C[S+]([O-])c1nccn1-c1ncccc1OC (configuration not stated) | 83% |  | 6 µM
22 | Nc1ccccc1C[S+]([O-])c1nccn1-c1ccccn1 (configuration not stated) | 29% |  | 27 µM
23 | Cc1cccnc1-n1ccnc1[S+]([O-])Cc1ccccc1N (configuration not stated) | 98% |  | 98 µM
24 | CCNc1ccccc1C[S+]([O-])c1nccn1-c1ncccc1OC (configuration not stated) | 82% |  | 7.5 µM
25 | COc1cccnc1-n1c([S+]([O-])Cc2ccccc2N(C)C)nc2c1CCC2 (configuration not stated) | 73% |  | 95 µM
26 | CN(C)c1ccccc1C[S+]([O-])c1nc2c(n1Cc1ccccc1)CCC2 (configuration not stated) | 42% |  | 28 µM

Continued, values first:

Row | inhibition [1] | IC50 [2] | IC50 [3] | SMILES
27 | 30% | Not Active |  | CN(C)c1ccccc1C[S+]([O-])c1nccn1-c1cnccn1 (configuration not stated)
28 | 79% |  | 2.5 µM | Cc1ccnc(-n2ccnc2[S+]([O-])Cc2ccccc2N(C)C)c1 (configuration not stated)
29 | 0% | Not Active |  | CN(C)c1ccccc1C[S+]([O-])c1ncc(-c2ccccc2)n1C (configuration not stated)
30 | 0% |  | 13 µM | COc1cccc(-n2ccnc2[S+]([O-])Cc2ccccc2N(C)C)n1 (configuration not stated)
31 | 76% |  | 5.5 µM | CN(C)c1ccccc1C[S+]([O-])c1nccn1-c1ccccn1 (configuration not stated)
32 | 9% |  | 68 µM | CN(C)c1ccccc1C[S+]([O-])c1nccn1-c1ccccc1 (configuration not stated)
33 | 36% |  | 7.4 µM | CN(C)c1ccccc1C[S+]([O-])c1nccn1-c1ccc(C(F)(F)F)cn1 (configuration not stated)
34 | 59% |  | 3.4 µM | COc1cc(C)nc(-n2ccnc2[S+]([O-])Cc2ccccc2N(C)C)c1 (configuration not stated)
35 | 69% |  | 16 µM | CC(C)Oc1cccnc1-n1ccnc1[S+]([O-])Cc1ccccc1N(C)C (configuration not stated)
36 | 0% |  | 13 µM | CN(C)c1ccccc1C[S+]([O-])c1nccn1-c1ccc(Cl)cn1 (configuration not stated)
37 | 0% |  | 35 µM | CN(C)c1ccccc1C[S+]([O-])c1nccn1-c1ccc(C#N)cn1 (configuration not stated)
38 | 1% |  | 4.8 µM | CN(C)c1ccccc1C[S+]([O-])c1nccn1-c1ncccc1O (configuration not stated)
39 | 47% |  | 44 µM | Cc1ccc(-n2ccnc2[S+]([O-])Cc2ccccc2N(C)C)nc1 (configuration not stated)
40 | 11% |  | 6.8 µM | CN(C)c1ccccc1C[S+]([O-])c1nccn1-c1cc(OCC(F)(F)F)ccn1 (configuration not stated)
41 | 72% |  | 14 µM | CN(C)c1ccccc1C[S+]([O-])c1nccn1Cc1ccccc1 (configuration not stated)
42 | 34% |  | 16 µM | CN(C)c1ccccc1C[S+]([O-])c1nccn1-c1ncccc1OCc1ccccc1 (configuration not stated)
43 | 2% |  | 12 µM | CC(=O)Oc1cccnc1-n1ccnc1[S+]([O-])Cc1ccccc1N(C)C (configuration not stated)
44 | 65% |  | 43 µM | CN(C)c1ccccc1C[S+]([O-])c1nccn1-c1nccc2ccccc12 (configuration not stated)

Row | inhibition [1] | IC50 [2] | IC50 [3] | SMILES
45 | 100% |  | 33 µM | COc1cccnc1-n1ccnc1[S+]([O-])Cc1ccccc1N(C)C (configuration not stated)
46 | 100% |  | 36 µM | CN(C)c1ccccc1C[S+]([O-])c1nccn1-c1ccncc1 (configuration not stated)
47 | 30% | Not Active |  | CN(C)c1ccccc1C[S+]([O-])c1nccn1-c1ncccn1 (configuration not stated)
48 | 87% |  | 44 µM | CN(C)c1ccccc1C[S+]([O-])c1nccn1CCc1ccccn1 (configuration not stated)
49 | 98% |  | 32 µM | CN(C)c1ccccc1C[S+]([O-])c1nccn1C (configuration not stated)
50 | 46% |  | 50 µM | Cc1cc(Br)cnc1-n1ccnc1[S+]([O-])Cc1ccccc1N(C)C (configuration not stated)
51 | 100% |  | 46 µM | CN(C)c1ccccc1C[S+]([O-])c1nccn1Cc1ccccn1 (configuration not stated)
52 | 0% |  |  | CN(C)c1ccccc1C[S+]([O-])c1nccn1-c1ccc(Br)cn1 (configuration not stated)
53 | 57% |  | 14 µM | Cc1cccc(-n2ccnc2[S+]([O-])Cc2ccccc2N(C)C)n1 (configuration not stated)
54 | 48% |  | 5.7 µM | CN(C)c1ccccc1C[S+]([O-])c1nccn1-c1ccc(N)cn1 (configuration not stated)
55 | 64% |  | 20 µM | CC(=O)Nc1ccc(-n2ccnc2[S+]([O-])Cc2ccccc2N(C)C)nc1 (configuration not stated)
56 | 96% |  | 31 µM | CCN(CC)c1ccccc1C[S+]([O-])c1nccn1-c1ccccn1 (configuration not stated)
57 | 98% |  | 12 µM | COc1ccc(-n2ccnc2[S+]([O-])Cc2ccccc2N(C)C)nc1 (configuration not stated)
58 | 100% |  | 33 µM | Cc1cccnc1-n1ccnc1[S+]([O-])Cc1ccccc1N(C)C (configuration not stated)
59 | 95% |  | 2.6 µM | COc1ccnc(-n2ccnc2[S+]([O-])Cc2ccccc2N(C)C)c1 (configuration not stated)
60 | 0% |  | 11 µM | Cc1cc(C)nc(-n2ccnc2[S+]([O-])Cc2ccccc2N(C)C)c1 (configuration not stated)
61 | 13% |  | 12 µM | COc1cnc(-n2ccnc2[S+]([O-])Cc2ccccc2N(C)C)cc1OC (configuration not stated)
62 | 0% |  | 60 µM | CN(C)c1ccccc1C[S+]([O-])c1nccn1-c1ccc([N+](=O)[O-])cn1 (configuration not stated)
